US20100093612A1, “INTEGRIN TARGETED CYCLOPEPTIDE LIGANDS, THEIR PREPARATION AND USE” (priority 2007, published 2010)

Assays:
αvβ3 integrin receptor = biological target: T1, αvβ3 integrin receptor (Homo sapiens, UniProt P05106+P06756); experiment: Solid-phase receptor-binding assay, competition with [125I]-echistatin, αvβ3; conditions: IC50 in the receptor high-affinity state; IC50±SD, average of three or more independent determinations; 0.05 nM [125I]echistatin
T1 construct: purchased Chemicon International Inc., Temecula, Calif
Method: (§1) Integrin-coated 96-well plates were incubated with the ligand in the presence of serially diluted competing compounds.
(§2) Solid-Phase Receptor-Binding Assay (General Procedure). The receptor binding assays were performed as described previously (Kumar, C. C.; et al. J. Pharmacol. Exp. Ther. 1997, 283, 843). Purified αvβ3 and αvβ5 receptors (Chemicon International Inc., Temecula, Calif.) were diluted to 500 ng/mL and 1000 ng/mL, respectively, in coating buffer [20 mM Tris-HCl (pH 7.4), 150 mM NaCl, 2 mM CaCl2, 1 mM MgCl2 and 1 mM MnCl2]. An aliquot of diluted receptors (100 μL/well) was added to 96-well microtiter plates and incubated overnight at 4° C. Coating solution was removed and 200 μL of blocking solution (coating buffer plus 1% BSA) were added to the wells and incubated for additional 2 h at room temperature. After incubation, the plates were rinsed three times with 200 μL of blocking-binding solution and incubated for 3 h at room temperature with 0.05 nM and 0.1 nM [^125I]Echistatin (Amersham Pharmacia) for αvβ3 and αvβ5 receptor binding assays, respectively. After incubation, the plates were sealed and counted in the γ-counter (Packard).

αvβ5 integrin receptor = biological target: T2, αvβ5 integrin receptor (Homo sapiens, UniProt P06756+P18084); experiment: Solid-phase receptor-binding assay, competition with [125I]-echistatin, αvβ5; conditions: IC50±SD, average of three or more independent determinations, 0.1 nM [125I]echistatin
T2 construct: purchased Chemicon International Inc., Temecula, Calif
Method: as §1, §2

[1] = no high-affinity-state footnote

IC50 (αvβ5 integrin receptor; IC50 in the receptor high-affinity state) [nM]	SMILES	IC50 (αvβ3 integrin receptor) [nM]	IC50 (αvβ5 integrin receptor; [1]) [nM]
–	N=C(N)NCCC[C@@H]1NC(=O)[C@@H]2C[C@@H](CN2C(=O)c2ccccc2)NC(=O)[C@H](CC(=O)O)NC(=O)CNC1=O [(If), c[-Arg-Gly-Asp-AMPRO2-]]	0.16 ± 0.03	86.6 ± 5.7
–	CCC(=O)N1C[C@@H]2C[C@H]1C(=O)N[C@@H](CCCNC(=N)N)C(=O)NCC(=O)N[C@@H](CC(=O)O)C(=O)N2 [(Ih), c[Arg-Gly-Asp-AMPRO4-]]	0.03 ± 0.01	94 ± 13
–	N=C(N)NCCC[C@@H]1NC(=O)[C@@H]2C[C@H](CN2C(=O)c2ccccc2)NC(=O)[C@H](CC(=O)O)NC(=O)CNC1=O [(Ii), c[-Arg-Gly-Asp-AMPRO5-]]	0.91 ± 0.4	89.2 ± 5.4
0.88 ± 0.23	CCCCCCCN1C[C@@H]2C[C@H]1C(=O)N[C@@H](CCCNC(=N)N)C(=O)NCC(=O)N[C@@H](CC(=O)O)C(=O)N2 [(Ip), c[-Arg-Gly-Asp-AMPRO15-]]	0.08 ± 0.02	–
